Twelve compounds from patent US20240287138A1, “CYCLIC PEPTIDES FOR INHIBITING TNF RECEPTOR 1 ACTIVITY” (Merck Sharp & Dohme LLC, priority 2023, published 2024) can be followed below.

As a reminder, the pIC50 is the IC50 on a negative log10 scale, so that one unit is a factor of ten.

pIC50: −log10 of the molar value. Numbered stars: 1 amine (or outer) side, 2 acyl side, 3 side chain; on linkers, the order of the positions; unused ones are H or OH. Bridge positions count the residues as written; N and C are the ends. Square brackets hold non-standard residues; d marks the D form. Peptide text beside a SMILES is read from it. Trp(βS-Me,7-OMe) = COc1cccc2c([C@H](C)[C@H](N)C(=O)O)c[nH]c12; Phe(3R-OH) = O=C([C@@H](N[*:1])[C@H](O[*:3])c1ccccc1)[*:2]; Achc(cis-1,4) = O=C([C@H]1CC[C@@H](N[*:1])CC1)[*:2]; Trp(7-Cl) = N[C@@H](Cc1c[nH]c2c(Cl)cccc12)C(=O)O; X15 = C[C@H](c1ccc(O)cc1)[C@H](N[*:1])C(=O)[*:2]; Phe(4-CONH2) = NC(=O)c1ccc(C[C@H](N)C(=O)O)cc1; Phe(4-COOH) = N[C@@H](Cc1ccc(C(=O)O)cc1)C(=O)O; Trp(7-aza) = N[C@@H](Cc1c[nH]c2ncccc12)C(=O)O; Phe(4-CH2NH2) = NCc1ccc(C[C@H](N)C(=O)O)cc1; Ala(4-thiazolyl) = N[C@@H](Cc1cscn1)C(=O)O; Pip(5R-OH) = O=C(O)[C@@H]1CC[C@@H](O)CN1; X4 = O=C([C@H]1C=C[C@@H](N[*:1])C1)[*:2]; X1 = O=C([C@@H]1CC[C@H](N[*:1])C1)[*:2]; d(cisHyp) = O=C(O)[C@H]1C[C@@H](O)CN1; Pip(4-aza) = O=C(O)[C@@H]1CNCCN1; hPhe = N[C@@H](CCc1ccccc1)C(=O)O; 4Pal = N[C@@H](Cc1ccncc1)C(=O)O; NMeE = CN[C@@H](CCC(=O)O)C(=O)O; dHyp = O=C(O)[C@H]1C[C@H](O)CN1; Cit = NC(=O)NCCC[C@H](N)C(=O)O; αMeS = C[C@](N)(CO)C(=O)O; NMeA = CN[C@@H](C)C(=O)O; Nle = CCCC[C@H](N)C(=O)O; Sar = CNCC(=O)O

For the assay, the target named is T1, TNFα-induced NF-κB signal transduction pathway (TNFR1 signaling) in THP-1 cells (Homo sapiens, UniProt P19438).
T1 sequence (P19438 30-455): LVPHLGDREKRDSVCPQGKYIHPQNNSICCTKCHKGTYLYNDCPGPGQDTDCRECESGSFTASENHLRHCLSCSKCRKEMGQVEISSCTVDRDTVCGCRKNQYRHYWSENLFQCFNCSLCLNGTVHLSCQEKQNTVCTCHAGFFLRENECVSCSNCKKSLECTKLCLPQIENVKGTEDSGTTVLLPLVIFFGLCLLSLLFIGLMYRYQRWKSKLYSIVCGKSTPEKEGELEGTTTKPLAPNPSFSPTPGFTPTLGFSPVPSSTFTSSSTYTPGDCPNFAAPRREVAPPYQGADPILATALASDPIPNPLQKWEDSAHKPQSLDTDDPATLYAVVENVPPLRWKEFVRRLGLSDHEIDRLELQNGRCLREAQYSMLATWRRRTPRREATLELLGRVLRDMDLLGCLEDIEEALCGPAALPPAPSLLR
Put plainly: THP-1 Lucia NF-κB reporter cell assay, inhibition of TNFα-induced NF-κB signaling. In kind it is cell-based. Conditions: THP-1 NF-κB Lucia reporter cells, 10 ng/mL TNFα, 16-18 h, secreted luciferase; read-out: THP-1 IC50. The procedure, abridged: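 Macrocyclic peptides were preincubated 1 h at 37 °C with THP-1 NF-κB-Lucia reporter cells (20,000 cells/well) in antibiotic-free RPMI 1640/10% FBS, then stimulated with 10 ng/mL human TNFα overnight (16-18 h). Secreted luciferase in supernatant was read by luminescence; IC50 from 4-parameter logistic fits.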
As for `CCCC[C@@H]1NC(=O)[C@@H]2CC[C@@H](C2)NC(=O)[C@H]([C@@H](C)c2c[nH]c3c(OC)cccc23)NC(=O)CN(C)C(=O)[C@H](Cc2ccc(OC)cc2)NC(=O)[C@H](Cc2ccc(C(=O)O)cc2)NC(=O)[C@](C)(CO)NC(=O)[C@H](Cc2c[nH]c3c(Cl)cccc23)NC(=O)[C@H](Cc2ccc(C(N)=O)cc2)NC(=O)[C@H](CCC(N)=O)NC(=O)[C@H](CCC(=O)O)N(C)C(=O)[C@H](Cc2c[nH]c3ccccc23)NC(=O)[C@@H]2CNCCN2C(=O)[C@H](Cc2ccncc2)NC1=O` [SEQ ID NO. 240] (cyclo([4Pal][Pip(4-aza)]W[NMeE]Q[Phe(4-CONH2)][Trp(7-Cl)][αMeS][Phe(4-COOH)]Y(Me)[Sar][Trp(βS-Me,7-OMe)][X1][Nle])), the pIC50 was 9.00.
As for `CN1CC(=O)N[C@@H](Cc2c[nH]c3ccccc23)C(=O)N[C@H](C(N)=O)CSCC(=O)N[C@@H](CCCCN)C(=O)N[C@@H](Cc2ccc(O)cc2)C(=O)N[C@@H](CO)C(=O)N[C@@H](Cc2c[nH]c3ccccc23)C(=O)N2CCC[C@@H]2C(=O)N[C@@H](CCC(N)=O)C(=O)N[C@@H](Cc2ccncc2)C(=O)N[C@@H](Cc2c[nH]c3ccccc23)C(=O)N[C@@](C)(CO)C(=O)N[C@@H](Cc2ccc(C(=O)O)cc2)C(=O)N[C@@H](Cc2ccc(O)cc2)C1=O` [SEQ ID NO. 242] ({CH2CO}-KYSW[dP]Q[4Pal]W[αMeS][Phe(4-COOH)]Y[Sar]WC-NH2; thioether N-14), the pIC50 was 8.52.
Next, `CCCC[C@@H]1NC(=O)CSC[C@@H](C(N)=O)NC(=O)[C@H]([C@@H](C)c2c[nH]c3c(OC)cccc23)NC(=O)CN(C)C(=O)[C@H](Cc2ccc(O)cc2)NC(=O)[C@H](Cc2ccc(C(=O)O)cc2)NC(=O)[C@](C)(CO)NC(=O)[C@H](Cc2c[nH]c3c(Cl)cccc23)NC(=O)[C@H](Cc2ccncc2)NC(=O)[C@H](CC(N)=O)NC(=O)[C@H](CCC(=O)O)N(C)C(=O)[C@H](Cc2c[nH]c3ncccc23)NC(=O)[C@H](CO)NC(=O)[C@H]([C@H](C)c2ccc(O)cc2)NC1=O` [SEQ ID NO. 243] ({CH2CO}-[Nle][X15]S[Trp(7-aza)][NMeE]N[4Pal][Trp(7-Cl)][αMeS][Phe(4-COOH)]Y[Sar][Trp(βS-Me,7-OMe)]C-NH2; thioether N-14): 8.49; `CCCC[C@@H]1NC(=O)[C@H]2CC[C@H](CC2)NC(=O)[C@H]([C@@H](C)c2c[nH]c3c(OC)cccc23)NC(=O)CN(C)C(=O)[C@H](Cc2ccc(O)cc2)NC(=O)[C@H](Cc2ccc(C(=O)O)cc2)NC(=O)[C@](C)(CO)NC(=O)[C@H](Cc2c[nH]c3c(Cl)cccc23)NC(=O)[C@H](Cc2ccncc2)NC(=O)[C@H](CC(N)=O)NC(=O)[C@H](CCC(=O)O)N(C)C(=O)[C@H](Cc2c[nH]c3ccccc23)NC(=O)[C@H](CO)NC(=O)[C@H](Cc2ccc(CN)cc2)NC1=O` [SEQ ID NO. 244] (cyclo([4Pal][Trp(7-Cl)][αMeS][Phe(4-COOH)]Y[Sar][Trp(βS-Me,7-OMe)][Achc(cis-1,4)][Nle][Phe(4-CH2NH2)]SW[NMeE]N)): 8.35.
For `CCCC[C@@H]1NC(=O)[C@@H]2CC[C@@H](C2)NC(=O)[C@H]([C@@H](C)c2c[nH]c3c(OC)cccc23)NC(=O)CN(C)C(=O)[C@H](Cc2ccc(C(=O)O)cc2)NC(=O)[C@H](Cc2ccc(C(N)=O)cc2)NC(=O)[C@](C)(CO)NC(=O)[C@H](Cc2c[nH]c3c(Cl)cccc23)NC(=O)[C@H](Cc2ccc(C(=O)O)cc2)NC(=O)[C@H](CC(N)=O)NC(=O)[C@H]2C[C@H](O)CN2C(=O)[C@H](Cc2c[nH]c3ccccc23)NC(=O)[C@@H]2CC[C@@H](O)CN2C(=O)[C@H](Cc2ccncc2)NC1=O` [SEQ ID NO. 247] (cyclo([4Pal][Pip(5R-OH)]W[dHyp]N[Phe(4-COOH)][Trp(7-Cl)][αMeS][Phe(4-CONH2)][Phe(4-COOH)][Sar][Trp(βS-Me,7-OMe)][X1][Nle])) the value was 9.30.
In the case of `C[C@H]1C(=O)N[C@@H](CC(N)=O)C(=O)N[C@@H](Cc2ccncc2)C(=O)N[C@@H](Cc2c[nH]c3ccccc23)C(=O)N[C@@](C)(CO)C(=O)N[C@@H](Cc2ccc(C(=O)O)cc2)C(=O)N[C@@H](Cc2ccc(O)cc2)C(=O)N(C)CC(=O)N[C@@H](Cc2c[nH]c3ccccc23)C(=O)N[C@@H]2C=C[C@@H](C2)C(=O)N[C@@H](CCc2ccccc2)C(=O)N[C@@H](Cc2ccncc2)C(=O)N[C@@H](CO)C(=O)N[C@@H](Cc2c[nH]c3ccccc23)C(=O)N1C` [SEQ ID NO. 248] (cyclo([4Pal]SW[NMeA]N[4Pal]W[αMeS][Phe(4-COOH)]Y[Sar]W[X4][hPhe])), the pIC50 was 7.97.
On to `CCCC[C@@H]1NC(=O)CSC[C@@H](C(N)=O)NC(=O)[C@H]([C@@H](C)c2c[nH]c3c(OC)cccc23)NC(=O)CN(C)C(=O)[C@H](Cc2ccc(O)cc2)NC(=O)[C@H](Cc2ccc(C(=O)O)cc2)NC(=O)[C@](C)(CO)NC(=O)[C@H](Cc2c[nH]c3c(Cl)cccc23)NC(=O)[C@H](Cc2ccncc2)NC(=O)[C@H](CC(N)=O)NC(=O)[C@H](CCC(=O)O)N(C)C(=O)[C@H](Cc2c[nH]c3ncccc23)NC(=O)[C@H](Cc2cscn2)NC(=O)[C@H](Cc2ccncc2)NC1=O` [SEQ ID NO. 253] ({CH2CO}-[Nle][4Pal][Ala(4-thiazolyl)][Trp(7-aza)][NMeE]N[4Pal][Trp(7-Cl)][αMeS][Phe(4-COOH)]Y[Sar][Trp(βS-Me,7-OMe)]C-NH2; thioether N-14), for which the negative-log IC50 (pIC50) is 8.36.
Regarding `CN1CC(=O)N[C@@H](Cc2c[nH]c3ccccc23)C(=O)N[C@H](C(N)=O)CSCC(=O)N[C@@H](CCCCN)C(=O)N[C@@H](Cc2ccc(O)cc2)C(=O)N[C@@H](CO)C(=O)N[C@@H](Cc2c[nH]c3ccccc23)C(=O)N2CCC[C@@H]2C(=O)N[C@@H](CCCNC(N)=O)C(=O)N[C@@H](Cc2ccncc2)C(=O)N[C@@H](Cc2c[nH]c3ccccc23)C(=O)N[C@@](C)(CO)C(=O)N[C@@H](Cc2ccc(C(=O)O)cc2)C(=O)N[C@@H](Cc2ccc(O)cc2)C1=O` [SEQ ID NO. 256] ({CH2CO}-KYSW[dP][Cit][4Pal]W[αMeS][Phe(4-COOH)]Y[Sar]WC-NH2; thioether N-14), the pIC50 was 8.21.
Next, `CCCC[C@@H]1NC(=O)CSC[C@@H](C(N)=O)NC(=O)[C@H]([C@@H](C)c2c[nH]c3c(OC)cccc23)NC(=O)CN(C)C(=O)[C@H](Cc2ccc(O)cc2)NC(=O)[C@H](Cc2ccc(C(=O)O)cc2)NC(=O)[C@](C)(CO)NC(=O)[C@H](Cc2c[nH]c3c(Cl)cccc23)NC(=O)[C@H](Cc2ccncc2)NC(=O)[C@H](CC(N)=O)NC(=O)[C@H](CCC(=O)O)N(C)C(=O)[C@H](Cc2c[nH]c3ncccc23)NC(=O)[C@H](CO)NC(=O)[C@H]([C@H](O)c2ccccc2)NC1=O` [SEQ ID NO. 259] ({CH2CO}-[Nle][Phe(3R-OH)]S[Trp(7-aza)][NMeE]N[4Pal][Trp(7-Cl)][αMeS][Phe(4-COOH)]Y[Sar][Trp(βS-Me,7-OMe)]C-NH2; thioether N-14): 8.72.
As to `C[C@H]1C(=O)N[C@@H](CC(N)=O)C(=O)N[C@@H](Cc2ccncc2)C(=O)N[C@@H](Cc2c[nH]c3ccccc23)C(=O)N[C@@](C)(CO)C(=O)N[C@@H](Cc2ccc(C(=O)O)cc2)C(=O)N[C@@H](CCCNC(=N)N)C(=O)N(C)CC(=O)N[C@@H](Cc2c[nH]c3ccccc23)C(=O)N[C@H](C(N)=O)CSCC(=O)N[C@@H](CCc2ccccc2)C(=O)N[C@@H](Cc2ccc(O)cc2)C(=O)N[C@@H](CO)C(=O)N[C@@H](Cc2c[nH]c3ccccc23)C(=O)N1C` [SEQ ID NO. 260] ({CH2CO}-[hPhe]YSW[NMeA]N[4Pal]W[αMeS][Phe(4-COOH)]R[Sar]WC-NH2; thioether N-14), the pIC50 was 7.30.
Take `CCCC[C@@H]1NC(=O)CSC[C@@H](C(N)=O)NC(=O)[C@H]([C@@H](C)c2c[nH]c3c(OC)cccc23)NC(=O)CN(C)C(=O)[C@H](Cc2ccc(O)cc2)NC(=O)[C@H](Cc2ccc(C(=O)O)cc2)NC(=O)[C@](C)(CO)NC(=O)[C@H](Cc2c[nH]c3c(Cl)cccc23)NC(=O)[C@H](Cc2ccncc2)NC(=O)[C@H](CC(N)=O)NC(=O)[C@H]2C[C@@H](O)CN2C(=O)[C@H](Cc2c[nH]c3ncccc23)NC(=O)[C@@H]2CNCCN2C(=O)[C@H](Cc2ccncc2)NC1=O` [SEQ ID NO. 261] ({CH2CO}-[Nle][4Pal][Pip(4-aza)][Trp(7-aza)][d(cisHyp)]N[4Pal][Trp(7-Cl)][αMeS][Phe(4-COOH)]Y[Sar][Trp(βS-Me,7-OMe)]C-NH2; thioether N-14): the pIC50 is 8.57.
As for `CCCC[C@@H]1NC(=O)[C@@H]2CC[C@@H](C2)NC(=O)[C@H]([C@@H](C)c2c[nH]c3c(OC)cccc23)NC(=O)CN(C)C(=O)[C@H](Cc2ccc(O)cc2)NC(=O)[C@H](Cc2ccc(C(=O)O)cc2)NC(=O)[C@](C)(CO)NC(=O)[C@H](Cc2c[nH]c3c(Cl)cccc23)NC(=O)[C@H](Cc2ccncc2)NC(=O)[C@H](CC(N)=O)NC(=O)[C@H](CCC(=O)O)N(C)C(=O)[C@H](Cc2c[nH]c3c(Cl)cccc23)NC(=O)[C@@H]2CNCCN2C(=O)[C@H](Cc2ccncc2)NC1=O` [SEQ ID NO. 262] (cyclo([4Pal][Trp(7-Cl)][αMeS][Phe(4-COOH)]Y[Sar][Trp(βS-Me,7-OMe)][X1][Nle][4Pal][Pip(4-aza)][Trp(7-Cl)][NMeE]N)), the negative-log IC50 (pIC50) is 8.92.
